Drawing on ChEMBL document CHEMBL5550132, “Structure-activity relationship in NOD2 agonistic muramyl dipeptides” (Eur J Med Chem, 2024), this text covers EC50, fold change (FC) and Activity for one compound.

The target in assay [1] is Nucleotide-binding oligomerization domain-containing protein 2 (Homo sapiens, UniProt Q9HC29). In words: Agonist activity at NOD2 (unknown origin).
For assay [2], the target named is T1, Nuclear factor NF-kappa-B complex (Homo sapiens) (UniProt Q00653+P19838+Q04206). In words: Activation of NF-kappaB in HEK-Blue hNOD2 cells assessed as fold change at 10 nM incubated for 48 hrs by SEAP reporter assay. The assay is classed as cell-based. Particulars: filed as activator. A general note: In a reporter assay the amount or activity of a reporter protein is the signal.

Assay [3] deals with T1, Nuclear factor NF-kappa-B complex (Homo sapiens). In words: Activation of NF-kappaB in HEK-Blue hNOD2 cells assessed as fold change at 100 nM incubated for 48 hrs by SEAP reporter assay. The format is cell-based. The settings on record: filed as activator.
The target is the same in assay [4]. The assay is described as follows: Activation of NF-kappaB in HEK-Blue hNOD2 cells assessed as fold change at 1000 nM incubated for 48 hrs by SEAP reporter assay. The format is cell-based. Particulars: filed as activator.
The species named for assay [5] is Cavia porcellus. In words: Induction of delayed type hypersensitivity in ABA-BSA immunized Hartley Guinea pigs assessed as reduction in skin lesions at 100 ug measured for 24 hrs. The format is functional. The settings on record: dose 100 µg.
The species entered for assay [6] is Cavia porcellus. The assay is described as follows: Induction of delayed type hypersensitivity in ABA-BSA immunized Hartley Guinea pigs assessed as reduction in skin lesions at 100 ug measured for 48 hrs. The format is functional. Particulars: dose 100 µg.

Each structure is given as a SMILES string.

T1 sequence (P19838 whole entry, looked up): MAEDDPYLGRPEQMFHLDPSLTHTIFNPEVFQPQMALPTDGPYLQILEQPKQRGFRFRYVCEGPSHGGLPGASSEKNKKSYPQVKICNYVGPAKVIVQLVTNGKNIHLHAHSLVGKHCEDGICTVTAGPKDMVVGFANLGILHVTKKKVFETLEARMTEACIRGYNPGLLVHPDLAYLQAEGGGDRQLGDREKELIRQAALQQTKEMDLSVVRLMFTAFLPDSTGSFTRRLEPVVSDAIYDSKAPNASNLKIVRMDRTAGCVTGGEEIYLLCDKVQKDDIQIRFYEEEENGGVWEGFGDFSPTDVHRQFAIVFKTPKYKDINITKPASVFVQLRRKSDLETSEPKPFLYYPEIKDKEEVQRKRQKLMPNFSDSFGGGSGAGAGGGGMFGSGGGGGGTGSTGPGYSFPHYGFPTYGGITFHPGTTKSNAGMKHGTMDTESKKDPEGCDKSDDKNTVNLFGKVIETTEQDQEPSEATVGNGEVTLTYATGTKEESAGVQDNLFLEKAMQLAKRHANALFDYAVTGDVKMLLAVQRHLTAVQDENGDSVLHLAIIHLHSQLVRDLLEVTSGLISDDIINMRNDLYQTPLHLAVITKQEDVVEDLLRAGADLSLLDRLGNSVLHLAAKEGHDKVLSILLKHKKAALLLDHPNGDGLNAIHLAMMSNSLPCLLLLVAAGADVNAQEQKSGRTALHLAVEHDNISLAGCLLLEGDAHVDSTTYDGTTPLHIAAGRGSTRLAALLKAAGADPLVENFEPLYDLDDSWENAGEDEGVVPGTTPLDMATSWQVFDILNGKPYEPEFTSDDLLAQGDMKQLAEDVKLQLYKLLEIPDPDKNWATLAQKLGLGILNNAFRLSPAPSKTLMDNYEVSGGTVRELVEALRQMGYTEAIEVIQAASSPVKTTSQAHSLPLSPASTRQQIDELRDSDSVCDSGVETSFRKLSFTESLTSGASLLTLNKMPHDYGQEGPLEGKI
T1 sequence (Q00653 whole entry, looked up): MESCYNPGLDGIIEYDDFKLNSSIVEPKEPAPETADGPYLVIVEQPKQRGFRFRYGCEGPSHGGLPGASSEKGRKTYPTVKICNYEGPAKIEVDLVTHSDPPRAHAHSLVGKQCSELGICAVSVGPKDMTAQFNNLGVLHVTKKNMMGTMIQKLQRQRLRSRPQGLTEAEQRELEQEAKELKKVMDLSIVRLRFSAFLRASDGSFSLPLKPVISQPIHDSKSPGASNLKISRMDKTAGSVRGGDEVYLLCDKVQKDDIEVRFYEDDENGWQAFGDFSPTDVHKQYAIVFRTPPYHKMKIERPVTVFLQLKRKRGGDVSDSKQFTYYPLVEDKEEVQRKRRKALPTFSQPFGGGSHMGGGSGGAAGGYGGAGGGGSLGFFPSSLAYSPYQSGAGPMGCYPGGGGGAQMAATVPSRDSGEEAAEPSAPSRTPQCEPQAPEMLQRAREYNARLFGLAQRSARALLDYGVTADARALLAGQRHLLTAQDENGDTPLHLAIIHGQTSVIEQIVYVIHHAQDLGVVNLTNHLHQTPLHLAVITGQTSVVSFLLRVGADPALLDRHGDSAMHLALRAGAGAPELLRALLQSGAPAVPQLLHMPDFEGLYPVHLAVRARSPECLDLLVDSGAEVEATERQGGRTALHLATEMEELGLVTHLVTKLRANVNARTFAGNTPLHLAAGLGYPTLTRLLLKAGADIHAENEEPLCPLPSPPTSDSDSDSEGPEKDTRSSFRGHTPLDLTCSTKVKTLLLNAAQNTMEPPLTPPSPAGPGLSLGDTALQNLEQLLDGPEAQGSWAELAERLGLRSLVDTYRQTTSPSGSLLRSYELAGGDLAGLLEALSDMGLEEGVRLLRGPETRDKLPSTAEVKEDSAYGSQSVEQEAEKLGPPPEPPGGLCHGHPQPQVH
T1 sequence (Q04206 whole entry, looked up): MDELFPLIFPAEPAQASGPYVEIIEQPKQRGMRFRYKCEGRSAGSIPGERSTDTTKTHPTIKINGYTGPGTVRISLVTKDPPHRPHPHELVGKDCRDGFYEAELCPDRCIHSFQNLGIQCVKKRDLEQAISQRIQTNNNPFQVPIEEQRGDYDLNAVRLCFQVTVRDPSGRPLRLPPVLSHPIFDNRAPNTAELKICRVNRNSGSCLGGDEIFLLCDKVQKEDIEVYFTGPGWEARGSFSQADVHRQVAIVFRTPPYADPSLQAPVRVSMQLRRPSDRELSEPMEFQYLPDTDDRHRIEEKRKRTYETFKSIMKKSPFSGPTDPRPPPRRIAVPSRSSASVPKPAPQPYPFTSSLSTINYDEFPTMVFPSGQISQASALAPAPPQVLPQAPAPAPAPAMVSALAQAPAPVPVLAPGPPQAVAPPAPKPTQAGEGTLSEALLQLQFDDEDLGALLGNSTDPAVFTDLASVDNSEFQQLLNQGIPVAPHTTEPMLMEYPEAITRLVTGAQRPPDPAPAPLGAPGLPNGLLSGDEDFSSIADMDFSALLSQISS
Sequence of Nucleotide-binding oligomerization domain-containing protein 2 (Q9HC29 whole entry, the tested form may be a part): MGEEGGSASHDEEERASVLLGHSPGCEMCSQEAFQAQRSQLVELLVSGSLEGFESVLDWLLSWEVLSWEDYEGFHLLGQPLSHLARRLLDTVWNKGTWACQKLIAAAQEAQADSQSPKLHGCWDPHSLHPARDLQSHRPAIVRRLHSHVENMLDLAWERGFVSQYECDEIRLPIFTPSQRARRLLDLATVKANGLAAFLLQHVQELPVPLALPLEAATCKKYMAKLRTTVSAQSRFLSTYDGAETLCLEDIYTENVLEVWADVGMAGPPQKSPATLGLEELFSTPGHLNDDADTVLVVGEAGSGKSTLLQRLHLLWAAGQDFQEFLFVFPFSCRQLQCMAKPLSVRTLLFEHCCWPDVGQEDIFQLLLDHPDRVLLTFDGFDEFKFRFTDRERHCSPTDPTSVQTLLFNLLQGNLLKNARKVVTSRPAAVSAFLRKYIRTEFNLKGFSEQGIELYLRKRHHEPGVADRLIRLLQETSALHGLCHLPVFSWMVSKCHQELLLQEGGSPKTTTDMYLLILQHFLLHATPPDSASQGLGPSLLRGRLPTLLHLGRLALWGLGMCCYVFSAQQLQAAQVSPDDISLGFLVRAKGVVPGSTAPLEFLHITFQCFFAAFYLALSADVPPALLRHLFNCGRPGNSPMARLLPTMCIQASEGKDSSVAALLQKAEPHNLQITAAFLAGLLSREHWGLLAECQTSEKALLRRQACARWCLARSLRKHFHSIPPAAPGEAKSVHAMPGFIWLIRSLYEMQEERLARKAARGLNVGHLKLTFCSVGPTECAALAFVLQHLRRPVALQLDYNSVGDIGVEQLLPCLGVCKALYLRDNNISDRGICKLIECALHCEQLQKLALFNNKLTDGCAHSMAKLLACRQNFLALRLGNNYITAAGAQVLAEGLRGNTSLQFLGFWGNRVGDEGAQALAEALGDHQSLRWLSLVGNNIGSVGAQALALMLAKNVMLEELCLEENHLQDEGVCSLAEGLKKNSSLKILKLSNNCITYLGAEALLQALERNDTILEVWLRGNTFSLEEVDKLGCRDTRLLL

On to `CC(=O)N[C@H]1C(O)O[C@H](CO)[C@@H](O)[C@@H]1O[C@H](C)C(=O)N[C@@H](C)C(=O)N[C@H](CCC(=O)O)C(N)=O` (stereo partly specified) [MURAMYL DIPEPTIDE], for which the EC50 (as a rule, the concentration that produces a half-maximal response) in assay [1] is 0.203 µM. For the same compound, the fold change (FC) in assay [2] was found to be 1.7; in assay [3] it was 4; in assay [4], 6.55. Further, the results for the Activity in the assay filed under Cavia porcellus [5] and in the assay filed under Cavia porcellus [6] were 21 mm and 19 mm, respectively.
